Results from US5627270A, “Glycosylated steroid derivatives for transport across biological membranes and process for making and using same” (Trustees of Princeton University, priority 1994, dated 1997).
“Also recorded” adds a separate entry of the source.

What was measured:
[1] = rat, in vivo
[2] = rat, in vivo, 100000 uM
[3] = rat, in vivo; remark: listed apart in the source
[4] = rat, in vivo; remark: listed apart in the source
[5] = Enhanced transmucosal delivery of co-administered agents in rat ileum or colon; format: in vivo
[6] = test system: Crithidia fasciculate; conditions: antifungal agent alone; cited from earlier work
[7] = Plasma calcitonin after ileal co-administration in the rat; conditions: absence of 1

COC(=O)CC[C@@H](C)[C@H]1CC[C@H]2[C@@H]3[C@H](O[C@H]4O[C@H](CO)[C@@H](O)[C@H](O)[C@H]4O)C[C@@H]4C[C@@H](N)CC[C@]4(C)[C@H]3C[C@H](O[C@H]3O[C@H](CO)[C@@H](O)[C@H](O)[C@H]3O)[C@]12C [Compound 1, 3β-amino-7α,12α-di(1'α-glucosyl)-5β-cholic acid methyl ester]
plasma calcitonin versus amount of 1 [1]: plasma calcitonin levels rise with increasing amounts of 1
bioavailability of calcitonin ([1]; po): significant amounts of calcitonin are made available with co-administration of 1
peak plasma levels of vancomycin [2]: 15 to 47 µg/mL
time to almost peak gentamicin levels ([3]; 10000 uM): ≤ 10 min
ileal bioavailability of gentamicin ([3]; 30000 uM): 19.8%
plasma concentrations of gentamicin versus concentration of 1 [4]: increasing plasma concentrations of the gentamicin
plasma levels of co-administered agents [5]: increase the plasma levels of proteinaceous compounds; also recorded: resembled pharmacokinetic profiles of agents administered intravenously

CCCCCCCCSCCCCCCCCC(=O)O [Entry 10-TSA, 10-thiastearic acid]
IC50 [6]: 10 µM

calcitonin
plasma calcitonin [7]: no appreciable amounts of calcitonin are found in the blood
